Assays:
[1] = test system: control sera (pooled serum of ten healthy LUMC hospital workers; commercial negative donor pooled serum from the Dutch bloodbank); assay type: binding, human; set-up: Binding of Control serum LUMC to linear peptides / Binding of Control serum Blood-bank to linear peptides / Binding of Control serum LUMC to looped peptides / Binding of Control Serum Blood-Bank to Looped peptides / Binding of Control serum LUMC to linear peptides of the protein M of SARS-CoV Urbani / Binding of Control serum Blood-bank to linear peptides of the protein M of SARS-CoV Urbani / Binding of Control serum LUMC to looped peptides of the protein M of SARS-CoV Urbani / Binding of Control Serum Blood-Bank to Looped peptides of the protein M of SARS-CoV Urbani: unit not given here
[2] = test system: rabbit serum obtained by immunizing a rabbit with the SARS-CoV strain Frankfurt 1; assay type: binding; set-up: Binding of a rabbit serum to linear peptides / Binding of a rabbit serum to looped peptides / Rabbit serum linear peptides / Rabbit serum looped peptides / Binding of a rabbit serum to linear peptides of protein N of SARS-CoV Urbani (Rabbit serum linear peptides) / Binding of a rabbit serum to looped/cyclic peptides of protein N of SARS-CoV Urbani (Rabbit serum looped peptides): unit not given here
[3] = test system: recombinant human anti-SARS-CoV antibody 03-018; assay type: binding; set-up: Binding of antibody 03-018 to linear peptides of the N protein of SARS-CoV Urbani / Binding of antibody 03-018 to looped/cyclic peptides of the N protein of SARS-CoV Urbani: unit not given here
[4] = test system: antibodies in sera from SARS patients (sera 1a, 1b, 2, 6, 37, 62, London, SARS-yellow, SARS-green); assay type: binding, human; set-up: Binding of serum 6 to linear peptides of protein X1 of SARS-CoV Urbani / Binding of serum 37 to linear peptides of protein X1 of SARS-CoV Urbani / Binding of serum 6 to looped/cyclic peptide (PEPSCAN-ELISA) / Binding of serum 37 to looped/cyclic peptide (PEPSCAN-ELISA) / Binding of serum 37 to looped/cyclic peptides of protein X1 of SARS-CoV Urbani / Binding of serum 6 to linear peptides of protein X2 / Binding of serum 37 to linear peptides of protein X2 / Binding of serum 37 to looped/cyclic peptides of protein X2 of SARS-CoV Urbani / Binding of serum 6 to linear peptides of protein M of SARS-CoV Urbani / Binding of serum 37 to linear peptides of protein M of SARS-CoV Urbani / Binding of serum 6 to looped/cyclic peptides of protein M of SARS-CoV Urbani / Binding of serum 37 to looped/cyclic peptides of protein M of SARS-CoV Urbani / Binding of serum 6 to linear peptides of protein X3 of SARS-CoV Urbani / Binding of serum 37 to linear peptides of protein X3 of SARS-CoV Urbani / Binding of serum 37 to looped/cyclic peptides of protein X3 of SARS-CoV Urbani / Binding of serum 6 to linear peptides of protein X4 of SARS-CoV Urbani / Binding of serum 37 to linear peptides of protein X4 of SARS-CoV Urbani / Binding of serum 37 to looped/cyclic peptides of protein X4 of SARS-CoV Urbani / Binding of serum 6 to linear peptides of protein X5 of SARS-CoV Urbani / Binding of serum 37 to linear peptides of protein X5 of SARS-CoV Urbani / Binding of serum 37 to looped/cyclic peptides of protein X5 of SARS-CoV Urbani / Binding of serum 6 to linear peptides of protein N of SARS-CoV Urbani / Binding of serum 37 to linear peptides of protein N of SARS-CoV Urbani / Binding of serum 6 to linear peptide (PEPSCAN-ELISA) / Binding of serum 1a to looped/cyclic peptides of protein N of SARS-CoV Urbani / Binding of serum 1b to looped/cyclic peptides of protein N of SARS-CoV Urbani / Binding of serum 2 to looped/cyclic peptides of protein N of SARS-CoV Urbani / Binding of serum 6 to looped/cyclic peptides of protein N of SARS-CoV Urbani / Binding of serum 37 to looped/cyclic peptides of protein N of SARS-CoV Urbani / Binding of serum 62 to looped/cyclic peptides of protein N of SARS-CoV Urbani / Binding of serum London to looped/cyclic peptides of protein N of SARS-CoV Urbani / Binding of serum SARS-green to looped/cyclic peptides of protein N of SARS-CoV Urbani: unit not given here

RFPRGQGVPINTNSG
Binding of Control Serum Blood-Bank to Looped peptides [1]: 0.6
Binding of Control serum Blood-bank to linear peptides [1]: 0.8
Binding of Control serum LUMC to linear peptides [1]: 0.6
Binding of Control serum LUMC to looped peptides [1]: 0.5
Binding of a rabbit serum to linear peptides of protein N of SARS-CoV Urbani (Rabbit serum linear peptides) [2]: 0.1
Binding of a rabbit serum to looped/cyclic peptides of protein N of SARS-CoV Urbani (Rabbit serum looped peptides) [2]: 0.5
Binding of antibody 03-018 to linear peptides of the N protein of SARS-CoV Urbani [3]: 0.1
Binding of antibody 03-018 to looped/cyclic peptides of the N protein of SARS-CoV Urbani [3]: 0.2
Binding of serum 1a to linear peptides of protein N of SARS-CoV Urbani [4]: 0.2
Binding of serum 1a to looped/cyclic peptides of protein N of SARS-CoV Urbani [4]: 0.3
Binding of serum 1b to linear peptides of protein N of SARS-CoV Urbani [4]: 0.1
Binding of serum 1b to looped/cyclic peptides of protein N of SARS-CoV Urbani [4]: 0.2
Binding of serum 2 to linear peptides of protein N of SARS-CoV Urbani [4]: 0.3
Binding of serum 2 to looped/cyclic peptides of protein N of SARS-CoV Urbani [4]: 0.4
Binding of serum 6 to linear peptides of protein N of SARS-CoV Urbani [4]: 0.1
Binding of serum 6 to looped/cyclic peptides of protein N of SARS-CoV Urbani [4]: 0.2
Binding of serum 37 to linear peptides of protein N of SARS-CoV Urbani [4]: 0.7
Binding of serum 37 to looped/cyclic peptides of protein N of SARS-CoV Urbani [4]: 0.5
Binding of serum 62 to linear peptides of protein N of SARS-CoV Urbani [4]: 0.7
Binding of serum 62 to looped/cyclic peptides of protein N of SARS-CoV Urbani [4]: 0.4
Binding of serum London to linear peptides of protein N of SARS-CoV Urbani [4]: 0.5
Binding of serum London to looped/cyclic peptides of protein N of SARS-CoV Urbani [4]: 0.3
Binding of serum SARS-green to linear peptides of protein N of SARS-CoV Urbani [4]: 0.4
Binding of serum SARS-green to looped/cyclic peptides of protein N of SARS-CoV Urbani [4]: 0.5
Binding of serum SARS-yellow to linear peptides of protein N of SARS-CoV Urbani [4]: 0.6
Binding of serum SARS-yellow to looped/cyclic peptides of protein N of SARS-CoV Urbani [4]: 0.4

RGNSPARMASGGGET
Binding of Control Serum Blood-Bank to Looped peptides [1]: 0.6
Binding of Control serum Blood-bank to linear peptides [1]: 0.8
Binding of Control serum LUMC to linear peptides [1]: 0.7
Binding of Control serum LUMC to looped peptides [1]: 0.5
Binding of a rabbit serum to linear peptides of protein N of SARS-CoV Urbani (Rabbit serum linear peptides) [2]: 0.1
Binding of a rabbit serum to looped/cyclic peptides of protein N of SARS-CoV Urbani (Rabbit serum looped peptides) [2]: 0.2
Binding of antibody 03-018 to linear peptides of the N protein of SARS-CoV Urbani [3]: 0.1
Binding of antibody 03-018 to looped/cyclic peptides of the N protein of SARS-CoV Urbani [3]: 0.2
Binding of serum 1a to linear peptide (PEPSCAN-ELISA) [4]: 0.3
Binding of serum 1a to looped/cyclic peptides of protein N of SARS-CoV Urbani [4]: 0.4
Binding of serum 1b to linear peptide (PEPSCAN-ELISA) [4]: 0.1
Binding of serum 1b to looped/cyclic peptides of protein N of SARS-CoV Urbani [4]: 0.3
Binding of serum 2 to linear peptide (PEPSCAN-ELISA) [4]: 0.2
Binding of serum 2 to looped/cyclic peptides of protein N of SARS-CoV Urbani [4]: 0.4
Binding of serum 6 to linear peptide (PEPSCAN-ELISA) [4]: 0.2
Binding of serum 6 to looped/cyclic peptides of protein N of SARS-CoV Urbani [4]: 0.3
Binding of serum 37 to linear peptide (PEPSCAN-ELISA) [4]: 0.5
Binding of serum 37 to looped/cyclic peptides of protein N of SARS-CoV Urbani [4]: 0.4
Binding of serum 62 to linear peptide (PEPSCAN-ELISA) [4]: 0.5
Binding of serum 62 to looped/cyclic peptides of protein N of SARS-CoV Urbani [4]: 0.4
Binding of serum London to linear peptide (PEPSCAN-ELISA) [4]: 0.5
Binding of serum London to looped/cyclic peptides of protein N of SARS-CoV Urbani [4]: 0.8
Binding of serum SARS-green to linear peptide (PEPSCAN-ELISA) [4]: 0.1
Binding of serum SARS-green to looped/cyclic peptides of protein N of SARS-CoV Urbani [4]: 0.1
Binding of serum SARS-yellow to linear peptide (PEPSCAN-ELISA) [4]: 0.5
Binding of serum SARS-yellow to looped/cyclic peptides of protein N of SARS-CoV Urbani [4]: 0.1

RIGMEVTPSGTWLTY
Control Serum Blood-Bank Looped peptides [1]: 0.8
Control serum Blood-bank linear peptides [1]: 0.5
Control serum LUMC linear peptides [1]: 0.5
Control serum LUMC looped peptides [1]: 0.7
Binding of a rabbit serum to linear peptides of protein N of SARS-CoV Urbani (Rabbit serum linear peptides) [2]: 0.0
Binding of a rabbit serum to looped/cyclic peptides of protein N of SARS-CoV Urbani (Rabbit serum looped peptides) [2]: 0.5
Binding of antibody 03-018 to linear peptides of the N protein of SARS-CoV Urbani [3]: 0.1
Binding of antibody 03-018 to looped/cyclic peptides of the N protein of SARS-CoV Urbani [3]: 0.2
Binding of serum 1a to linear peptides of protein N of SARS-CoV Urbani [4]: 0.2
Binding of serum 1a to looped/cyclic peptides of protein N of SARS-CoV Urbani [4]: 0.4
Binding of serum 1b to linear peptides of protein N of SARS-CoV Urbani [4]: 0.1
Binding of serum 1b to looped/cyclic peptides of protein N of SARS-CoV Urbani [4]: 0.2
Binding of serum 2 to linear peptides of protein N of SARS-CoV Urbani [4]: 0.1
Binding of serum 2 to looped/cyclic peptides of protein N of SARS-CoV Urbani [4]: 0.5
Binding of serum 6 to linear peptides of protein N of SARS-CoV Urbani [4]: 0.1
Binding of serum 6 to looped/cyclic peptides of protein N of SARS-CoV Urbani [4]: 0.3
Binding of serum 37 to linear peptides of protein N of SARS-CoV Urbani [4]: 0.4
Binding of serum 37 to looped/cyclic peptides of protein N of SARS-CoV Urbani [4]: 0.7
Binding of serum 62 to linear peptides of protein N of SARS-CoV Urbani [4]: 0.4
Binding of serum 62 to looped/cyclic peptides of protein N of SARS-CoV Urbani [4]: 0.8
Binding of serum London to linear peptides of protein N of SARS-CoV Urbani [4]: 0.3
Binding of serum London to looped/cyclic peptides of protein N of SARS-CoV Urbani [4]: 0.6
Binding of serum SARS-green to linear peptides of protein N of SARS-CoV Urbani [4]: 0.5
Binding of serum SARS-green to looped/cyclic peptides of protein N of SARS-CoV Urbani [4]: 0.5
Binding of serum SARS-yellow to linear peptides of protein N of SARS-CoV Urbani [4]: 0.9
Binding of serum SARS-yellow to looped/cyclic peptides of protein N of SARS-CoV Urbani [4]: 0.5

RITFGGPTDSTDNNQ
Binding of Control Serum Blood-Bank to Looped peptides [1]: 0.6
Binding of Control serum Blood-bank to linear peptides [1]: 0.6
Binding of Control serum LUMC to linear peptides [1]: 0.5
Binding of Control serum LUMC to looped peptides [1]: 0.5
Binding of a rabbit serum to linear peptides of protein N of SARS-CoV Urbani (Rabbit serum linear peptides) [2]: 0.3
Binding of a rabbit serum to looped/cyclic peptides of protein N of SARS-CoV Urbani (Rabbit serum looped peptides) [2]: 0.1
Recognition of the peptide by antibody 03-018 [3]: recognized
Binding of serum 1a to linear peptides of protein N of SARS-CoV Urbani [4]: 0.2
Binding of serum 1a to looped/cyclic peptides of protein N of SARS-CoV Urbani [4]: 0.3
Binding of serum 1b to linear peptides of protein N of SARS-CoV Urbani [4]: 0.1
Binding of serum 1b to looped/cyclic peptides of protein N of SARS-CoV Urbani [4]: 0.2
Binding of serum 2 to linear peptides of protein N of SARS-CoV Urbani [4]: 0.2
Binding of serum 2 to looped/cyclic peptides of protein N of SARS-CoV Urbani [4]: 0.2
Binding of serum 6 to linear peptides of protein N of SARS-CoV Urbani [4]: 0.1
Binding of serum 6 to looped/cyclic peptides of protein N of SARS-CoV Urbani [4]: 0.2
Binding of serum 37 to linear peptides of protein N of SARS-CoV Urbani [4]: 0.8
Binding of serum 37 to looped/cyclic peptides of protein N of SARS-CoV Urbani [4]: 0.5
Binding of serum 62 to linear peptides of protein N of SARS-CoV Urbani [4]: 0.6
Binding of serum 62 to looped/cyclic peptides of protein N of SARS-CoV Urbani [4]: 0.3
Binding of serum London to linear peptides of protein N of SARS-CoV Urbani [4]: 0.5
Binding of serum London to looped/cyclic peptides of protein N of SARS-CoV Urbani [4]: 0.3
Binding of serum SARS-green to linear peptides of protein N of SARS-CoV Urbani [4]: 0.5
Binding of serum SARS-green to looped/cyclic peptides of protein N of SARS-CoV Urbani [4]: 0.4
Binding of serum SARS-yellow to linear peptides of protein N of SARS-CoV Urbani [4]: 1.3
Binding of serum SARS-yellow to looped/cyclic peptides of protein N of SARS-CoV Urbani [4]: 0.2

Source: patent US20070128217A1 (priority 2003, published 2007)
